Laboratory results published in US20210085630A1, “PHARMACEUTICAL COMPOSITION AND USE THEREOF IN PREPARING DRUG FOR TREATING TUMOR MULTI-DRUG RESISTANCE” (SICHUAN JIUZHANG BIOLOGICAL SCIENCE AND TECHNOLOGY CO., LTD., priority 2018, published 2021).
Values after ≈ are worked out from the molar mass of the structure shown. Where a name gives a salt, the structure may show the parent alone. Marks after values point to notes of the source that are not given here.

What was measured:
[1] = test system: drug-resistant A375 melanoma cell lines; assay: MTT: IC50 of dacarbazine against drug-resistant A375 cells and drug-resistant index; format: cell-based, human
Experimental: A375 melanoma cell lines were exposed to dacarbazine (400 μg/ml) for 3 months, and centrifuged, to culture dacarbazine-resistant A375 cells. The cells were observed every day, and taken through 3 passages for about 3 days, to ensure cell viability.
(§1) Above-mentioned cell lines and drug-resistant cell lines in the logarithmic growth phase were selected, the cell concentration was adjusted to 8×10^3 cells/well, and then cells were seeded in a 96-well plate. For the experiment, there were three groups: blank group, control group and dacarbazine group. In the blank group, only medium was added, without inoculating cells; in the control group, medium was added, and cells were inoculated; in the dacarbazine group, medium was added, cells were inoculated, and then dacarbazine was added at different concentrations. The plates were placed in an incubator and incubated for 48 h, then 5 mg/ml MTT (20 μl) was added to each well, and the plate was further incubated for 4 h.
Drug-resistant index=IC50 value of drug-resistant cells/IC50 value of sensitive cells

[2] = test system: dacarbazine-resistant B16 melanoma; assay: Tumor weight and inhibition rate, transplanted dacarbazine-resistant B16 melanoma; format: in vivo; conditions: dacarbazine-resistant B16 melanoma mice; test drug 30 mg/kg i.p. once a day 5 days, then dacarbazine 60 mg/kg every other day; positive drug dacarbazine 60 mg/kg
Experimental: B16 melanoma cell lines were induced by the increased gradient concentration of dacarbazine, and established by clone screening and cultured without drug before the experiment.
(§2) After the drug was removed from the drug-resistant cell lines, the cell concentration was adjusted to 1×10^7/ml with the culture medium. 1×10^7/ml of cells were subcutaneously injected into the right armpit of mice, 0.1 ml per mouse.
(§3) After the average diameter of tumor reached […], the mice were randomly divided into test drug group 1, test drug group 2, test drug group 3, test drug group 4, test drug group 5, test drug group 6, positive drug group, and negative group, respectively.
(§4) Test drug group: the test drug group was first intraperitoneally injected, once a day, 30 mg/kg/time, for 5 consecutive days; administration was stopped, and the positive drug was given by intraperitoneal injection on the next day; wherein the positive drug dacarbazine was administrated once every other day, 60 mg/kg/time; wherein the positive drug gemcitabine was given once every other day, 300 mg/kg/time.
(§5) Positive drug group: positive drug dacarbazine was given once every other day, 60 mg/kg/time; positive drug gemcitabine was given once every other day, 300 mg/kg/time.
(§6) Negative group: normal saline was intraperitoneally injected, once a day, for 15 consecutive days.
(§7) After completion of administration, the experiment was stopped, and the mice were killed by cervical dislocation and weighed. The tumor was stripped and weighed, to calculate the tumor inhibition rate.

PD-1/PD-L1 [3] = assay: PD-1/PD-L1 expression rate (immunohistochemical SP method), drug-resistant B16 melanoma tumor tissue; format: in vivo; conditions: transplanted tumor tissues of drug-resistant B16 melanoma in mice, Example 3 regimen
Source text: (§8) The positive expression rate of PD-1/PD-L1 in tumor tissues was detected by immunohistochemical SP method.

[4] = test system: CD4+T and CD8+T lymphocytes; assay: Number of CD4+T and CD8+T cells (immunofluorescence), drug-resistant B16 melanoma transplanted tumor; format: in vivo; conditions: transplanted tumor of drug-resistant B16 melanoma in mice, average of 6 high power fields
Experimental: (§9) The number of CD4+T and CD8+T lymphocytes was analyzed by immunofluorescence staining, and the average number of CD4+T and CD8+T cells infiltrated in 6 high power fields was counted.

[5] = test system: multi-drug resistant Lewis lung cancer; assay: Tumor weight and inhibition rate, transplanted multi-drug resistant Lewis lung cancer; format: in vivo, mice; conditions: for Tumor weight / Tumor-inhibition rate (%): multi-drug resistant Lewis lung cancer mice, test drug 30 mg/kg i.p. 5 days, then gemcitabine 300 mg/kg or dacarbazine 60 mg/kg every other day
Experimental: Lewis lung cancer cell lines were induced by the increased gradient concentration of dacarbazine and gemcitabine, and established by clone screening, then cultured without drug before the experiment.
as §2, §3, §4, §5, §6, §7

PD-1/PD-L1 [6] = assay: PD-1/PD-L1 expression rate in transplanted tumor tissues, multidrug resistance model; format: in vivo; conditions: transplanted tumor tissues of B16 melanoma mice with multidrug resistance (as titled), Example 5 regimen
Source text: as §8

[7] = test system: CD4+T and CD8+T lymphocytes; assay: Number of CD4+T and CD8+T lymphocytes in transplanted tumor of multidrug-resistant Lewis lung cancer mice; format: in vivo; conditions: average of 6 high power fields
Experimental: as §9

[8] = test system: drug-resistant A549 lung cancer cell lines; assay: MTT: IC50 of gemcitabine against drug-resistant A549 cells and drug-resistant index; format: cell-based, human
Experimental: A549 lung cancer cell lines were exposed to gemcitabine (2000 μg/ml) for 3 months, and centrifuged, to culture gemcitabine-resistant A549 cells. The cells were observed every day, and taken through 3 passages for about 3 days, to ensure cell viability.
as §1, with “gemcitabine” for “dacarbazine”, “h. […] Drug-resistant index=IC50 value of drug-resistant cells/IC50 value of sensitive cells” for “h.”

[9] = test system: gemcitabine-resistant Lewis lung cancer; assay: Tumor weight and inhibition rate, transplanted gemcitabine-resistant Lewis lung cancer; format: in vivo; conditions: gemcitabine-resistant Lewis lung cancer mice; test drug 30 mg/kg i.p. once a day 5 days, then gemcitabine 300 mg/kg every other day; positive drug gemcitabine 300 mg/kg
Experimental: Lewis lung cancer cell lines were induced by the increased gradient concentration of gemcitabine, and established by clone screening and cultured without drug before the experiment.
as §2, §3, §4, §5, §6, §7

PD-1/PD-L1 [10] = assay: PD-1/PD-L1 expression rate (immunohistochemical SP method), drug-resistant Lewis lung cancer tumor tissue; format: in vivo; conditions: transplanted tumor tissues of drug-resistant Lewis lung cancer in mice, Example 3 regimen
Source text: as §8

[11] = test system: CD4+T and CD8+T lymphocytes; assay: Number of CD4+T and CD8+T cells (immunofluorescence), drug-resistant Lewis lung cancer transplanted tumor; format: in vivo; conditions: transplanted tumor of drug-resistant Lewis lung cancer in mice, average of 6 high power fields
Experimental: as §9

B16 melanoma cell lines = assay: Establishment of Opdivo-resistant tumor model, tumor volume over time, B16 melanoma; format: in vivo; conditions: B16 melanoma mice, Opdivo 30 mg/kg i.p. every other day
Experimental: (§10) The concentration of cell lines was adjusted to 1×10^7/ml with the culture medium. 1×10^7/ml of cells were subcutaneously injected into the right armpit of mice, 0.1 ml per mouse.

[12] = test system: Lewis lung cancer cell lines; assay: Establishment of Opdivo-resistant tumor model, tumor volume over time, Lewis lung cancer; format: in vivo; conditions: Lewis lung cancer mice, Opdivo 30 mg/kg i.p. every other day
Experimental: as §10

[13] = test system: Opdivo-resistant B16 melanoma; assay: Antitumor effect (tumor volume, weight, inhibition rate) in Opdivo-resistant B16 melanoma mice; format: in vivo
Experimental: as §10
(§11) The model mice were randomly divided into groups, eight for one group, and included test drug group 1, test drug group 2, test drug group 3, test drug group 4, positive drug Opdivo group, single drug chlorogenic acid group, test drug 1+Opdivo group, test drug 2+Opdivo group, test drug 3+Opdivo group, test drug 4+Opdivo group, and negative group, respectively.
(§12) Test drug group: from the second day after stopping administration to the model, the group received drug by intraperitoneal injection, once a day, 30 mg/kg.
(§13) Single drug group: from the second day after stopping administration to the model, the group received drug by intraperitoneal injection, once a day, 30 mg/kg.
(§14) Test drug+Opdivo group: from the second day after stopping administration to the model, the group received the test drug by intraperitoneal injection, once a day, and the test drug was stopped after administrating for 5 consecutive days; on the next day, Opdivo was intraperitoneally injected, once every other day, with the dosage of 30 mg/kg.
(§15) Positive drug group: once every other day, 30 mg/kg.
(§16) Negative group: normal saline was intraperitoneally injected, once a day, the same amount of saline.
(§17) Before each administration, the tumor volume was measured, and the experiment was stopped when the average tumor volume of negative group was greater than 1.5 cm^3.
as §7

[14] = test system: Opdivo-resistant Lewis lung cancer; assay: Antitumor effect (tumor volume, weight, inhibition rate) in Opdivo-resistant Lewis lung cancer mice; format: in vivo
Experimental: as §10, §11, §12, §13, §14, §15, §16, §17, §7

PD-1/PD-L1 [15] = assay: PD-1/PD-L1 expression rate in tumor tissues of Opdivo-resistant B16 melanoma mice; format: in vivo; conditions: tumor tissues of drug-resistant (Opdivo) B16 melanoma mice
Source text: as §8

PD-1/PD-L1 [16] = assay: PD-1/PD-L1 expression rate in tumor tissues of Opdivo-resistant Lewis lung cancer mice; format: in vivo; conditions: tumor tissues of drug-resistant (Opdivo) Lewis lung cancer mice
Source text: as §8

[17] = test system: CD4+T and CD8+T lymphocytes; assay: Number of CD4+T and CD8+T cells in Opdivo-resistant B16 melanoma mice; format: in vivo; conditions: drug-resistant (Opdivo) B16 melanoma mice, average of 6 high power fields
Experimental: as §9

[18] = test system: CD4+T and CD8+T lymphocytes; assay: Number of CD4+T and CD8+T cells in Opdivo-resistant Lewis lung cancer mice; format: in vivo; conditions: drug-resistant (Opdivo) Lewis lung cancer mice, average of 6 high power fields
Experimental: as §9

[19] = 30 mg/kg i.p. once a day, + Opdivo groups: test drug 5 days, then Opdivo 30 mg/kg every other day
[20] = 30 mg/kg i.p., + Opdivo groups 30 + 30 mg/kg

Compound: CN(C)/N=N/c1[nH]cnc1C(N)=O [Dacarbazine, 5-(3,3-dimethyl-1-triazenyl)-4-carboxamideimidazolium citrate, reference compound]
- IC50 ([1]; Homo sapiens, A-375, dacarbazine against drug-resistant A375 melanoma cell lines, MTT, 48 h, read-out: IC50 Concentration): 560 µg/mL
- Drug-resistant index ([1]; IC50 of drug-resistant cells/IC50 of sensitive cells, A375): 6.22
- Tumor inhibition rate (%) [2]: 4.55%
- Tumor weight [2]: 2.52 ± 0.77 g
- Expression rate of PD-1/PD-L1, Positive PD-L1 (PD-1/PD-L1 [3]): 72.51%
- CD4 + T cells (number) [4]: 63.67 ± 5.83
- CD8 + T cells (number) [4]: 91.23 ± 3.84
- Tumor weight [5]: 2.33 ± 0.52 g
- Tumor-inhibition rate (%) [5]: 1.27%
- Expression rate of PD-1/PD-L1, Positive PD-L1 (PD-1/PD-L1 [6]): 72.51%
- CD4 + T cells (number) [7]: 74.52 ± 7.38
- CD8 + T cells (number) [7]: 123.74 ± 12.85

Compound: Nc1ccn([C@@H]2O[C@H](CO)[C@@H](O)C2(F)F)c(=O)n1 [Gemcitabine, gemcitabine, reference compound]
- IC50 ([8]; Homo sapiens, gemcitabine against drug-resistant A549 lung cancer cell lines, MTT, 48 h, read-out: IC50 Concentration): 3620 µg/mL (≈ 13.8 mM)
- Drug-resistant index ([8]; IC50 of drug-resistant cells/IC50 of sensitive cells, A549): 4.63
- Tumor inhibitory rate (%) [9]: 5.24%
- Tumor weight (g) [9]: 2.17 ± 0.89 ^ g
- Expression rate of PD-1/PD-L1, Positive PD-L1 (PD-1/PD-L1 [10]): 78.93%
- CD4 + T cells (number) [11]: 82.16 ± 1.42
- CD8 + T cells (number) [11]: 112.53 ± 4.28
- Tumor weight [5]: 2.27 ± 0.38 g
- Tumor-inhibition rate (%) [5]: 3.81%
- inhibitory effect on the tumor (in words) ([5]; multidrug-resistant Lewis lung cancer mice, positive drug groups): don't have obvious inhibitory effect
- Expression rate of PD-1/PD-L1, Positive PD-L1 (PD-1/PD-L1 [6]): 74.35%
- CD4 + T cells (number) [7]: 77.69 ± 8.96
- CD8 + T cells (number) [7]: 121.08 ± 10.32

Compound: Opdivo: human programmed death receptor-1 (PD-1) blocking antibody; PD-1 inhibitor
- Tumor volume, Model group (cm^3) (B16 melanoma cell lines; 2 d after inoculation): 0.00 ± 0.000 ** cm^3
- Tumor volume, Model group (cm^3) (B16 melanoma cell lines; 4 d after inoculation): 0.084 ± 0.047 ** cm^3
- Tumor volume, Model group (cm^3) (B16 melanoma cell lines; 6 d after inoculation): 0.106 ± 0.043 ** cm^3
- Tumor volume, Model group (cm^3) (B16 melanoma cell lines; 8 d after inoculation): 0.128 ± 0.062 ** cm^3
- Tumor volume, Model group (cm^3) (B16 melanoma cell lines; 10 d after inoculation): 0.179 ± 0.147 ** cm^3
- Tumor volume, Model group (cm^3) (B16 melanoma cell lines; 12 d after inoculation): 0.286 ± 0.116 ** cm^3
- Tumor volume, Model group (cm^3) (B16 melanoma cell lines; 14 d after inoculation): 0.881 ± 0.204 cm^3
- Tumor volume, Model group (cm^3) ([12]; 4 d after inoculation): 0.00 ± 0.000 ** cm^3
- Tumor volume, Model group (cm^3) ([12]; 6 d after inoculation): 0.073 ± 0.052* cm^3
- Tumor volume, Model group (cm^3) ([12]; 8 d after inoculation): 0.098 ± 0.075** cm^3
- Tumor volume, Model group (cm^3) ([12]; 10 d after inoculation): 0.121 ± 0.101** cm^3
- Tumor volume, Model group (cm^3) ([12]; 12 d after inoculation): 0.164 ± 0.084** cm^3
- Tumor volume, Model group (cm^3) ([12]; 14 d after inoculation): 0.226 ± 0.113** cm^3
- Tumor volume, Model group (cm^3) ([12]; 16 d after inoculation): 0.464 ± 0.154* cm^3
- Tumor volume, Model group (cm^3) ([12]; 18 d after inoculation): 0.984 ± 0.236 cm^3
- continuous treatment effect / effect on tumor volume control (in words) [13]: not obvious
- Tumor volume (cm^3) [13, 19]: 1.793 ± 0.842 cm^3
- Tumor inhition rate (%) [13, 20]: 1.41%
- Tumor weight [13, 20]: 2.79 ± 1.13 g
- continuous treatment effect / effect on tumor volume control (in words) [14]: not obvious
- Tumor volume (cm^3) [14, 19]: 1.616 ± 0.772 cm^3
- Tumor inhibition rate (%) [14, 20]: 2.38%
- Tumor weight [14, 20]: 2.52 ± 0.83 g
- Expression rate of PD-1/PD-L1, Positive PD-L1 (PD-1/PD-L1 [15]): 85.87%
- Expression rate of PD-1/PD-L1, Positive PD-L1 (PD-1/PD-L1 [16]): 72.77%
- CD4 + T cells (number) [17]: 74.63 ± 6.35
- CD8 + T cells (number) [17]: 88.61 ± 5.82
- CD4 + T cells (number) [18]: 64.22 ± 7.74
- CD8 + T cells (number) [18]: 117.81 ± 7.99
